# Measured values: patent US20170326125A1, “MULTISUBSTITUTED AROMATIC COMPOUNDS AS INHIBITORS OF THROMBIN” (VERSEON CORPORATION, priority 2016, published 2017)
# pIC50: −log10 of the molar value.
# Biological target: T1, Human thrombin (Homo sapiens, UniProt P00734)
# T1 construct: purchased Haematologic Technologies Inc
# Test: Inhibition of the protease activity of thrombin (chromogenic substrate S-2238)
# Assay type: biochemical
# Conditions: Table C; 3 nM thrombin, 125 μM S-2238, 10 min pre-incubation, RT
row,pIC50,Structure (SMILES)
1,> 7.00,"CC(C)C(=O)n1nc(-c2cccnc2)nc1NCc1ccco1 [Cmpd 361, 1-5-[(furan-2-ylmethyl)amino]-3-(pyridin-3-yl)-1H-1,2,4-triazol-1-yl-2-methylpropan-1-one]"
2,> 7.00,"O=C(CCc1ccccc1)n1nc(-c2cccnc2)nc1NCc1ccc(F)cc1 [Cmpd 315, 1-(5-[(4-fluorophenyl)methyl]amino-3-(pyridin-3-yl)-1H-1,2,4-triazol-1-yl)-3-phenylpropan-1-one]"
3,> 7.00,"O=C(Cc1ccccc1)n1nc(-c2ccco2)nc1NCc1ccccc1 [Cmpd 346, 1-[5-(benzylamino)-3-(furan-2-yl)-1H-1,2,4-triazol-1-yl]-2-phenylethan-1-one]"
4,< 6.00,"COC(=O)c1n[nH]c(NC2=NCCCCC2)n1 [Cmpd 381, methyl 5-[(3,4,5,6-tetrahydro-2H-azepin-7-yl)amino]-1H-1,2,4-triazole-3-carboxylate]"
5,> 7.00,"CSc1nc(-c2ccco2)nn1C(=O)c1ccccc1Cl [Cmpd 330, 1-[(2-chlorophenyl)carbonyl]-3-(furan-2-yl)-5-(methylsulfanyl)-1H-1,2,4-triazole]"
6,6.00 to 7.00,"CCC(=O)n1nc(-c2ccccc2)nc1NCc1ccccc1 [Cmpd 355, 1-[5-(benzylamino)-3-phenyl-1H-1,2,4-triazol-1-yl]propan-1-one]"
7,> 7.00,"CC(C)CC(=O)n1nc(-c2cccnc2)nc1NCc1ccc(F)cc1 [Cmpd 314, 1-(5-[(4-fluorophenyl)methyl]amino-3-(pyridin-3-yl)-1H-1,2,4-triazol-1-yl)-3-methylbutan-1-one]"
8,> 7.00,"CCC(=O)n1nc(-c2ccco2)nc1NCc1ccccc1 [Cmpd 348, 1-[5-(benzylamino)-3-(furan-2-yl)-1H-1,2,4-triazol-1-yl]propan-1-one]"

# Same assay, conditions: inhibition of the protease activity of thrombin
row,pIC50,Structure (SMILES)
1,> 7.00,"Cc1ccccc1C(=O)n1nc(-c2ccccn2)nc1NCc1ccccc1 [Cmpd 259, N-benzyl-1-[(2-methylphenyl)carbonyl]-3-(pyridin-2-yl)-1H-1,2,4-triazol-5-amine]"
2,6.00 to 7.00,"COc1ccc(C(=O)n2nc(-c3ccccn3)cc2NCc2ccccc2)c(OC)c1 [Cmpd 236, N-benzyl-1-[(2,4-dimethoxyphenyl)carbonyl]-3-(pyridin-2-yl)-1H-pyrazol-5-amine]"
3,6.00 to 7.00,"COc1ccccc1C(=O)n1nc(-c2ccccn2)cc1NCc1ccco1 [Cmpd 201, N-(furan-2-ylmethyl)-1-[(2-methoxyphenyl)carbonyl]-3-(pyridin-2-yl)-1H-pyrazol-5-amine]"
4,> 7.00,"O=C(c1ccsc1)n1nc(-c2ccncc2)nc1NCc1ccccc1 [Cmpd 289, N-benzyl-3-(pyridin-4-yl)-1-[(thiophen-3-yl)carbonyl]-1H-1,2,4-triazol-5-amine]"
5,> 7.00,"COc1cc(C)ccc1C(=O)n1nc(-c2ccccn2)nc1NCc1ccccc1 [Cmpd 253, N-benzyl-1-[(2-methoxy-4-methylphenyl)carbonyl]-3-(pyridin-2-yl)-1H-1,2,4-triazol-5-amine]"
6,< 6.00,"O=C(c1ccc2ccccc2c1)n1nc(-c2ccccn2)cc1NCc1ccccc1 [Cmpd 272, N-benzyl-1-[(naphthalen-2-yl)carbonyl]-3-(pyridin-2-yl)-1H-pyrazol-5-amine]"
7,< 6.00,"COc1ccccc1C(=O)n1nc(-c2ccccc2)cc1NCc1ccc(F)cc1 [Cmpd 208, N-[(4-fluorophenyl)methyl]-1-[(2-methoxyphenyl)carbonyl]-3-phenyl-1H-pyrazol-5-amine]"
8,> 7.00,"O=C(c1ccoc1)n1nc(-c2cccnc2)nc1NCc1ccc(F)cc1 [Cmpd 213, N-[(4-fluorophenyl)methyl]-1-[(furan-3-yl)carbonyl]-3-(pyridin-3-yl)-1H-1,2,4-triazol-5-amine]"
9,> 7.00,"COc1ccc(C(=O)n2nc(-c3ccccn3)nc2NCc2ccccc2)c(F)c1 [Cmpd 248, N-benzyl-1-[(2-fluoro-4-methoxyphenyl)carbonyl]-3-(pyridin-2-yl)-1H-1,2,4-triazol-5-amine]"
10,6.00 to 7.00,"O=C(c1ccccc1F)n1nc(-c2ccccc2F)cc1NCc1ccccc1 [Cmpd 277, N-benzyl-3-(2-fluorophenyl)-1-[(2-fluorophenyl)carbonyl]-1H-pyrazol-5-amine]"
11,< 6.00,"CCN(C)C(=O)n1nc(-c2cccnc2)nc1NCc1ccc(F)cc1 [Cmpd 297, N-ethyl-5-[(4-fluorophenyl)methyl]amino-N-methyl-3-(pyridin-3-yl)-1H-1,2,4-triazole-1-carboxamide]"
12,< 6.00,"CC(C)c1ccccc1C(=O)n1nc(-c2ccccn2)nc1NCc1ccccc1 [Cmpd 275, N-benzyl-1-[2-(propan-2-yl)phenyl]carbonyl-3-(pyridin-2-yl)-1H-1,2,4-triazol-5-amine]"
13,> 7.00,"O=C(c1ccccc1Br)n1nc(-c2ccccn2)nc1NCc1ccccc1 [Cmpd 240, N-benzyl-1-[(2-bromophenyl)carbonyl]-3-(pyridin-2-yl)-1H-1,2,4-triazol-5-amine]"
14,< 6.00,"CCN(C)C(=O)c1cc(-c2ccccn2)nn1CCc1ccc(F)cc1 [Cmpd 293, N-ethyl-1-[2-(4-fluorophenyl)ethyl]-N-methyl-3-(pyridin-2-yl)-1H-pyrazole-5-carboxamide]"
15,> 7.00,"O=C(c1ccccc1OC(F)(F)F)n1nc(-c2ccccn2)nc1NCc1ccccc1 [Cmpd 285, N-benzyl-3-(pyridin-2-yl)-1-[2-(trifluoromethoxy)phenyl]carbonyl-1H-1,2,4-triazol-5-amine]"
16,< 6.00,"c1ccc(CNc2nc(-c3ccco3)n[nH]2)cc1 [Cmpd 281, N-benzyl-3-(furan-2-yl)-1H-1,2,4-triazol-5-amine]"
17,< 6.00,"O=C(c1cn(-c2ccccn2)nc1NCc1ccc(F)cc1)N1CCCCC1 [Cmpd 225, N-[(4-fluorophenyl)methyl]-4-[(piperidin-1-yl)carbonyl]-1-(pyridin-2-yl)-1H-pyrazol-3-amine]"

# Same assay, conditions: inhibition of the protease activity of thrombin; class symbols a/b/c
row,pIC50,Structure (SMILES)
1,> 7.00,"CC(C)(C)C(=O)n1nc(-c2cccs2)nc1NCc1ccccc1 [Cmpd 152, 1-[5-(benzylamino)-3-(thiophen-2-yl)-1H-1,2,4-triazol-1-yl]-2,2-dimethylpropan-1-one]"
2,< 6.00,Cc1c(-c2ccccc2)nn(C(=O)C(C)(C)C)c1NCc1ccc(F)cc1 [Cmpd 38]
3,> 7.00,"O=C(Cc1ccccc1)n1nc(-c2ccccn2)nc1NCc1ccccc1 [Cmpd 139, 1-[5-(benzylamino)-3-(pyridin-2-yl)-1H-1,2,4-triazol-1-yl]-2-phenylethan-1-one]"
4,> 7.00,"Cc1ccc(C(=O)n2nc(-c3ccccn3)nc2NCc2ccccc2)c(N)c1 [Cmpd 107, 1-[(2-amino-4-methylphenyl)carbonyl]-N-benzyl-3-(pyridin-2-yl)-1H-1,2,4-triazol-5-amine]"
5,< 6.00,CCC(=O)n1nc(-c2cccnc2)nc1N(C)C [Cmpd 24]
6,6.00 to 7.00,"CCC(=O)n1nc(-c2ccncc2)nc1NCc1ccc(OC)cc1 [Cmpd 100, 1-(5-[(4-methoxyphenyl)methyl]amino-3-(pyridin-4-yl)-1H-1,2,4-triazol-1-yl)propan-1-one]"
7,6.00 to 7.00,"CCC(=O)n1nc(-c2cccs2)nc1NCc1ccc(F)cc1 [Cmpd 83, 1-(5-[(4-fluorophenyl)methyl]amino-3-(thiophen-2-yl)-1H-1,2,4-triazol-1-yl)propan-1-one]"
8,< 6.00,"CCC(=O)n1nc(-c2cccnc2)nc1NCc1cccc(C#N)c1 [Cmpd 179, 3-([1-propanoyl-3-(pyridin-3-yl)-1H-1,2,4-triazol-5-yl]aminomethyl)benzonitrile]"
9,< 6.00,O=C(Cn1nc(-c2cccnc2)nc1NCc1ccc(F)cc1)c1ccccc1 [Cmpd 21]
10,< 6.00,"CC(C)(C)C(=O)Cn1nc(-c2cccnc2)nc1NCc1ccc(F)cc1 [Cmpd 72, 1-(5-[(4-fluorophenyl)methyl]amino-3-(pyridin-3-yl)-1H-1,2,4-triazol-1-yl)-3,3-dimethylbutan-2-one]"
11,< 6.00,"CCC(=O)n1nc(-c2ccccc2)c(C)c1NCc1ccc(F)cc1 [Cmpd 85, 1-(5-[(4-fluorophenyl)methyl]amino-4-methyl-3-phenyl-1H-pyrazol-1-yl)propan-1-one]"
12,> 7.00,"CCCC(=O)n1nc(-c2ccccn2)nc1NCc1ccc(F)cc1 [Cmpd 69, 1-(5-[(4-fluorophenyl)methyl]amino-3-(pyridin-2-yl)-1H-1,2,4-triazol-1-yl)butan-1-one]"
13,< 6.00,"CC(=O)c1cc(-c2ccccn2)nn1CCc1ccc(F)cc1 [Cmpd 164, 1-1-[2-(4-fluorophenyl)ethyl]-3-(pyridin-2-yl)-1H-pyrazol-5-ylethan-1-one]"
14,> 7.00,"O=C(c1ccccc1Cl)n1nc(-c2ccncc2)nc1NCc1ccc(F)cc1 [Cmpd 112, 1-[(2-chlorophenyl)carbonyl]-N-[(4-fluorophenyl)methyl]-3-(pyridin-4-yl)-1H-1,2,4-triazol-5-amine]"
15,< 6.00,CNC(=O)n1nc(-c2cccnc2)nc1NCc1ccc(F)cc1 [Cmpd 19]
16,< 6.00,"CCC(=O)c1cn(-c2ccccc2)nc1NCc1ccc(F)cc1 [Cmpd 62, 1-(3-[(4-fluorophenyl)methyl]amino-1-phenyl-1H-pyrazol-4-yl)propan-1-one]"
17,> 7.00,"O=C(Cc1ccccc1)n1nc(-c2ccccn2)nc1NCc1ccc(F)cc1 [Cmpd 66, 1-(5-[(4-fluorophenyl)methyl]amino-3-(pyridin-2-yl)-1H-1,2,4-triazol-1-yl)-2-phenylethan-1-one]"
18,< 6.00,"CC(=O)Cn1nc(-c2cccnc2)nc1NCc1ccc(F)cc1 [Cmpd 73, 1-(5-[(4-fluorophenyl)methyl]amino-3-(pyridin-3-yl)-1H-1,2,4-triazol-1-yl)propan-2-one]"
19,< 6.00,CON(C)C(=O)c1cn(-c2ccccn2)nc1NCc1ccc(F)cc1 [Cmpd 48]
20,> 7.00,"O=C(c1cccc2c1OCCO2)n1nc(-c2ccccc2)nc1NCc1ccc(F)cc1 [Cmpd 102, 1-[(2,3-dihydro-1,4-benzodioxin-5-yl)carbonyl]-N-[(4-fluorophenyl)methyl]-3-phenyl-1H-1,2,4-triazol-5-amine]"
21,< 6.00,"COC(=O)c1n[nH]c(NC(=O)c2cccc(Cl)c2)n1 [Cmpd 195, methyl 5-[(3-chlorobenzene)amido]-1H-1,2,4-triazole-3-carboxylate]"
